In patent publication US20220401460A1, “MODULATING RESISTANCE TO BCL-2 INHIBITORS” (Dana-Farber Cancer Institute, Inc., priority 2018, published 2022):
Residues, ends and D or L forms follow the SMILES beside them. *: point of attachment. Cbz = O=C(OCc1ccccc1)*; CH2F = FC*

Key:
[1] = tested on: OCI-Ly1-S cells; assay: Cell Titer-Glo viability assay and Chou-Talalay synergy analysis, parental OCI-Ly1-S cells; type: cell-based, human
[2] = tested on: OCI-Ly1-R cells; assay: Cell Titer-Glo viability assay, venetoclax-resistant OCI-Ly1-R cells; type: cell-based, human; settings: for restoration of venetoclax sensitivity: combination with venetoclax, OCI-Ly1-R cells
[3] = tested on: knockout and overexpression OCI-Ly1 cell lines; assay: Viability/growth of single-gene knockout and overexpression OCI-Ly1 cell lines; type: cell-based, human; settings: individual knockout cell lines vs lines transduced with 2 non-targeting control sgRNAs; P<0.05
Method: (§1) Cell viability assay. The Cell Titer-Glo Luminescent Cell Viability Assay (Promega) was used to determine the relative number of viable cells after drug treatment. 0.2×10^6 cells/mL were seeded in a 24 well-plate and treated with drugs for 24 or 48 hours. The viability assay was conducted using the manufacturer's protocol after treatment. Values were normalized to DMSO-treated cells. Plates were read on a SpectraMax M3 reader (Molecular Devices).
Cloning of sgRNA vectors. […]
Generation of engineered cell lines. […] As confirmation that the engineered cell lines expressed the expected alterations, Applicants: (i) evaluated the expression of the targeted protein by western-blotting (FIG. 6d), and (ii) for the CRISPR-Cas9 engineered cell lines, performed targeted DNA sequencing for the CRISPR target sites before and after 2 weeks of exposure to venetoclax (100 nM), and assessed the proportion of frameshift indels (FIG. 6g). […] Following PCR, samples were purified with Agencourt AMPure XP beads (Beckman Coulter) and quantified on a Bioanalyzer (Agilent) with High Sensitivity DNA chips. Sample libraries were diluted to 4 nM, pooled, and ran on the Illumina MiSeq platform using single-end sequencing with the following parameters: read 1: 296nt, index 1: 6nt.

[4] = tested on: OCI-Ly1-S cells; assay: Seahorse oxygen consumption (OCR) and extracellular acidification rate (ECAR), OCI-Ly1-S; type: cell-based, human
Method: Measurement of oxygen consumption and extracellular acidification rate. For each condition, 1.25×10^5 cells were counted and plated on a Seahorse plate coated with Cell-Tak (Corning Life Sciences) in Seahorse XF DMEM media (Agilent). OCR and ECAR were recorded using a Seahorse XF96 Analyzer (Agilent) for 24 consecutive measurements. OCR is measured before and after the addition of inhibitors to assess mitochondrial function by deriving several parameters of mitochondrial respiration: (i) basal respiration, (ii) ATP-linked respiration and proton leak respiration (after 3 μM oligomycin [Sigma], a complex V inhibitor) and (iii) maximal respiration (after 1 μM carbonyl cyanide m-chlorophenyl hydrazine (CCCP) [Sigma], a protonophore).
To measure the effect of venetoclax on OCR/ECAR, cells were pre-treated for 1 h with […] of zVAD-FMK (Abcam) or left untreated and OCR/ECAR were recorded for 4 measurements before injection of venetoclax at a final concentration of 100 nM. DMSO injection was used as control.

[5] = tested on: CLL patients; assay: CLL patients treated with venetoclax in clinical trials (response, progression); type: in vivo, human
Excerpt: Human samples. Genomic DNA was isolated (DNAeasy Blood and Tissue Kit, Qiagen) from specimens collected from CLL patients enrolled on clinical trials of venetoclax treatment (NCT01328626, NCT02141282), approved by and conducted in accordance with the principles of the Declaration of Helsinki and with the approval of the Institutional Review Boards (IRB) of the University of Texas/MD Anderson Cancer Center (MDACC; Patients 1, 3, 4) or of Dana-Farber Cancer Institute (DFCI; Patient 2, 5, 6). Blood and/or tissue tumor samples were collected at baseline, before initiation of venetoclax therapy, and at relapse or progression on venetoclax.

[6] = tested on: ID3 knockout OCI-Ly1 cells; assay: Viability of single-cell clones from ID3 knockout OCI-Ly1 cells; type: cell-based, human; settings: single cell clones from ID3 knockout line, viability at 24 hours
Method: as §1
Single-cell cloning of the ID3 knockout. OCI-Ly1 cells was performed using […] dilution strategy. Cells from the bulk ID3 OCI-Ly1 were seeded at a concentration of 0.5 cells/well in a 96-well plate (5 plates per cell line). To investigate the presence of mutations, 6 clones per sgRNA were analyzed by PCR and Sanger sequencing using primers flanking the target sites for the sgRNAs (Forward primer: 5′-[…]-3′ (SEQ ID NO:1); Reverse:5′-[…]-3′ (SEQ ID NO:2)). The absence of ID3 protein were confirmed in clones harboring loss-of-function mutations by western blot (FIG. 8d). Three different knockout single-cell clones for each sgRNA were used for further functional studies.

[7] = 6 CLL patients progressing on venetoclax

SMILES: CC1(C)CCC(CN2CCN(c3ccc(C(=O)NS(=O)(=O)c4ccc(NCC5CCOCC5)c([N+](=O)[O-])c4)c(Oc4cnc5[nH]ccc5c4)c3)CC2)=C(c2ccc(Cl)cc2)C1 [venetoclax]
- IC50 ([1]; Homo sapiens, parental OCI-Ly1-S cells): 4 nM
- IC50 ([2]; Homo sapiens, OCI-Ly1-R cells generated by chronic in vitro drug exposure): 1000 nM
- median increase in IC50 [3]: 2.1 fold
- decrease in oxygen consumption ([4]; OCI-Ly1-S cells, within 20 minutes after drug exposure, venetoclax 100 nM): 2 fold
- median time to relapse [5, 7]: 16.4 months
- range of time to relapse [5, 7]: 5.1-22.8 months
- Time to progression (months) ([5]; Patient 1, daily dose 400 mg): 22.8 months
- Time to progression (months) ([5]; Patient 2, daily dose 400 mg): 7.1 months
- Time to progression (months) ([5]; Patient 3, daily dose 400 mg): 16.4 months
- Time to progression (months) ([5]; Patient 4, daily dose 400 mg): 5.1 months
- Time to progression (months) ([5]; Patient 5, daily dose 400 mg): 8.2 months
- Time to progression (months) ([5]; Patient 6, daily dose 1200 mg then 400 mg): 22.8 months

SMILES: Cc1c(-c2c(-c3ccc(F)o3)sc3ncnc(O[C@H](Cc4ccccc4OCc4ccnn4CC(F)(F)F)C(=O)O)c23)ccc(OCCN2CCN(C)CC2)c1Cl [S63845]
- combination index (synergy with venetoclax) ([1]; combination with venetoclax, OCI-Ly1-S cells, Chou-Talalay method): < 1
- synergy with venetoclax ([2]; OCI-Ly-R cells): synergized
- restoration of venetoclax sensitivity [2]: restore venetoclax sensitivity

SMILES: CC[C@H]1/C=C/C=C/C[C@@H](C)[C@H](O)[C@@](C)(O)C(=O)[C@@H](C)[C@H](O)[C@@H](C)C(=O)[C@@H](C)[C@H](O)[C@@H](C)/C=C/C(=O)O[C@@H]2[C@H](C)[C@H](CC1)O[C@]1(CC[C@H](C)[C@H](C[C@@H](C)O)O1)[C@H]2C [oligomycin]
- restoration of venetoclax sensitivity [2]: restore sensitivity to venetoclax
- sensitivity to the combination with venetoclax vs control cells [6]: more sensitive

SMILES: COC(=O)C[C@H](NC(=O)[C@H](C)NC(=O)[C@@H](NC(=O)OCc1ccccc1)C(C)C)C(=O)CF [zVAD] (Cbz-Val-Ala-Asp(OMe)-CH2F)
- prevention of venetoclax impact on OXPHOS ([4]; 1 h pre-treatment with zVAD-FMK before venetoclax): not fully prevented
